# Data from the supplement of paper PMC10307832.
# Assays:
# Test in all cases: relative viability (nuclei count vs DMSO), 5 days (fraction); higher = more cells survive
# [1] = compound: OCc1c[nH]c2ccccc12 [Indole-3-carbinol] + N=C(N)NC(=N)NCCc1ccccc1 [Phenformin] (partner 250 µM)
# Outline: (§1)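 A single step with final 0.05% Triton X-100, 1% formaldehyde and 1 ug/ml Hoechst fixed the cells and stained nuclei 5 days after treatment. Lung cancer cell lines in 1536-well plates had been treated by pin tool the day after seeding with one drug alone or a fixed anchor-drug dose plus five library-drug doses (not always all listed) in √10 steps, and nuclei were counted on 4× images. Relative viability is the ratio of nuclei in treated wells to nuclei in vehicle wells, taken as the median of duplicate plates.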
# [2] = compound: OCc1c[nH]c2ccccc12 [Indole-3-carbinol] + CS(=O)(=O)N1CCN(Cc2cc3nc(-c4cccc5[nH]ncc45)nc(N4CCOCC4)c3s2)CC1 [Pictilisib] (partner 1 µM)
# Outline: as §1
# [3] = compound: OCc1c[nH]c2ccccc12 [Indole-3-carbinol] + Cc1nc(Nc2ncc(C(=O)Nc3c(C)cccc3Cl)s2)cc(N2CCN(CCO)CC2)n1 [Dasatinib] (partner 0.075 µM)
# Outline: as §1
# [4] = compound: OCc1c[nH]c2ccccc12 [Indole-3-carbinol] + CS(=O)(=O)CCNCc1ccc(-c2ccc3ncnc(Nc4ccc(OCc5cccc(F)c5)c(Cl)c4)c3c2)o1 [Lapatinib] (partner 2 µM)
# Outline: as §1
# [5] = compound: OCc1c[nH]c2ccccc12 [Indole-3-carbinol] + Cc1nc(NC(=O)N2CCC[C@H]2C(N)=O)sc1-c1ccnc(C(C)(C)C(F)(F)F)c1 [Alpelisib] (partner 2 µM)
# Outline: as §1
Cell Line,relative viability ([1]; first compound 0.253 µM),relative viability ([1]; first compound 0.8 µM),relative viability ([1]; first compound 2.53 µM),relative viability ([1]; first compound 8 µM),relative viability ([2]; first compound 0.253 µM),relative viability ([2]; first compound 0.8 µM),relative viability ([2]; first compound 2.53 µM),relative viability ([2]; first compound 8 µM),relative viability ([3]; first compound 0.253 µM),relative viability ([3]; first compound 0.8 µM),relative viability ([3]; first compound 2.53 µM),relative viability ([3]; first compound 8 µM),relative viability ([4]; first compound 0.253 µM),relative viability ([4]; first compound 0.8 µM),relative viability ([4]; first compound 2.53 µM),relative viability ([4]; first compound 8 µM),relative viability ([5]; first compound 0.253 µM),relative viability ([5]; first compound 0.8 µM),relative viability ([5]; first compound 2.53 µM),relative viability ([5]; first compound 8 µM)
ChaGo-K-1,0.479,0.475,0.551,0.443,0.524,0.891,0.666,0.649,0.583,0.568,0.709,0.604,–,–,–,–,–,–,–,–
EKVX,0.232,0.223,0.227,0.234,0.43,0.449,0.418,0.402,0.564,0.54,0.535,0.67,0.203,0.18,0.207,0.198,0.763,0.973,0.9,0.852
EMC-BAC-2,0.528,0.536,0.489,0.413,0.532,0.453,0.555,0.359,0.329,0.307,0.337,0.312,0.879,0.76,0.852,0.813,0.715,0.731,0.741,0.665
EPLC-272H,0.347,0.292,0.285,0.258,0.337,0.329,0.293,0.298,0.44,0.406,0.403,0.387,1.3,0.851,1.04,0.716,1.13,0.94,0.931,0.803
H3255,0.397,0.385,0.414,0.343,0.427,0.483,0.467,0.48,0.346,0.456,0.338,0.321,0.245,0.235,0.227,0.255,0.671,0.741,0.675,0.643
HARA,0.484,0.479,0.554,0.435,0.299,0.573,0.573,0.407,0.289,0.296,0.323,0.198,0.932,0.737,0.711,0.654,0.759,0.808,0.93,0.773
HCC-15,0.54,0.556,0.472,0.468,0.714,0.773,0.735,0.719,0.615,0.745,0.611,0.607,0.965,0.951,0.893,0.829,0.824,0.986,0.987,0.848
HCC-44,0.168,0.198,0.187,0.295,0.52,0.499,0.49,0.506,–,–,–,–,1.02,1.04,0.973,0.988,0.788,0.845,0.851,0.773
HCC-78,0.654,0.626,0.667,0.845,0.202,0.205,0.192,0.196,0.335,0.436,0.392,0.535,0.97,0.645,0.768,0.664,0.346,0.309,0.269,0.334
